{"source": "patent US11370798B2", "about": "(Vertex Pharmaceuticals Incorporated, priority 2012, dated 2022)", "data": [{"test_system": "HCT116 colorectal cancer cells", "assay": "Cisplatin sensitization assay (96 h cell viability MTS);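 note: Test-compound concentration that lowers the Cisplatin IC50 by a set fold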", "type": "cell-based", "settings": "compound and Cisplatin added simultaneously, Cisplatin sensitization value", "summary_of_the_method": "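Viability read by MTS (1 h at 37° C) after 96 h co-exposure at 37° C, 5% CO2. Test compound and cisplatin were dosed simultaneously in a full concentration matrix, each 2-fold serially diluted from 10 μM final; sensitization values binned in μM.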", "values": [{"smiles": "CN(C)C1CCCN(c2ccncc2NC(=O)c2c(N)nn3cc(Cl)cnc23)C1", "note": "(stereo not drawn) [I-N-40, 2-amino-6-chloro-N-(4-(3-(dimethylamino)piperidin-1-yl)pyridin-3-yl)pyrazolo[1,5-a]pyrimidine-3-carboxamide]", "Cisplatin Sensitization Assay": "++ (Cisplatin sensitization value>0.02 μM but <0.2 μM)"}, {"smiles": "CN1CCN(c2c(Cl)cncc2NC(=O)c2c(N)nn3cc(Cl)cnc23)CC1", "note": "[I-N-41, 2-amino-6-chloro-N-(5-chloro-4-(4-methylpiperazin-1-yl)pyridin-3-yl)pyrazolo[1,5-a]pyrimidine-3-carboxamide]", "Cisplatin Sensitization Assay": "+++ (Cisplatin sensitization value of <0.02 μM)"}, {"smiles": "CN1CCCN(c2ccncc2NC(=O)c2c(N)nn3cc(Cl)cnc23)CC1", "note": "[I-N-43, 2-amino-6-chloro-N-(4-(4-methyl-1,4-diazepan-1-yl)pyridin-3-yl)pyrazolo[1,5-a]pyrimidine-3-carboxamide]", "Cisplatin Sensitization Assay": "++ (Cisplatin sensitization value>0.02 μM but <0.2 μM)"}, {"smiles": "Nc1nn2cc(Cl)cnc2c1C(=O)Nc1cnccc1N1CCn2ccnc2C1", "note": "[I-N-44, 2-amino-6-chloro-N-(4-(5,6-dihydroimidazo[1,2-a]pyrazin-7(8H)-yl)pyridin-3-yl)pyrazolo[1,5-a]pyrimidine-3-carboxamide]", "Cisplatin Sensitization Assay": "++ (Cisplatin sensitization value>0.02 μM but <0.2 μM)"}, {"smiles": "CN(C)CC1CCN(c2ccncc2NC(=O)c2c(N)nn3cc(Cl)cnc23)CC1", "note": "[I-N-45, 2-amino-6-chloro-N-(4-(4-((dimethylamino)methyl)piperidin-1-yl)pyridin-3-yl)pyrazolo[1,5-a]pyrimidine-3-carboxamide]", "Cisplatin Sensitization Assay": "++ (Cisplatin sensitization value>0.02 μM but <0.2 μM)"}, {"smiles": "COC1(CN(C)C)CCN(c2ccncc2NC(=O)c2c(N)nn3cc(Cl)cnc23)CC1", "note": "[I-N-46, 2-amino-6-chloro-N-(4-(4-((dimethylamino)methyl)-4-methoxypiperidin-1-yl)pyridin-3-yl)pyrazolo[1,5-a]pyrimidine-3-carboxamide]", "Cisplatin Sensitization Assay": "+++ (Cisplatin sensitization value of <0.02 μM)"}, {"smiles": "COCC1CN(c2ccncc2NC(=O)c2c(N)nn3cc(Cl)cnc23)CCN1C", "note": "(stereo not drawn) [I-N-47, 2-amino-6-chloro-N-(4-(3-(methoxymethyl)-4-methylpiperazin-1-yl)pyridin-3-yl)pyrazolo[1,5-a]pyrimidine-3-carboxamide]", "Cisplatin Sensitization Assay": "++ (Cisplatin sensitization value>0.02 μM but <0.2 μM)"}, {"smiles": "Nc1nn2cc(Cl)cnc2c1C(=O)Nc1cnccc1N1CCN(C2CCC2)CC1", "note": "[I-N-48, 2-amino-6-chloro-N-(4-(4-cyclobutylpiperazin-1-yl)pyridin-3-yl)pyrazolo[1,5-a]pyrimidine-3-carboxamide]", "Cisplatin Sensitization Assay": "++ (Cisplatin sensitization value>0.02 μM but <0.2 μM)"}, {"smiles": "CN(C)CCN1CCN(c2ccncc2NC(=O)c2c(N)nn3cc(Cl)cnc23)CC1", "note": "[I-N-49, 2-amino-6-chloro-N-(4-(4-(2-(dimethylamino)ethyl)piperazin-1-yl)pyridin-3-yl)pyrazolo[1,5-a]pyrimidine-3-carboxamide]", "Cisplatin Sensitization Assay": "+++ (Cisplatin sensitization value of <0.02 μM)"}, {"smiles": "CN1CCN(c2cc(N)ncc2NC(=O)c2c(N)nn3cc(Cl)cnc23)CC1", "note": "[I-N-50, 2-amino-N-(6-amino-4-(4-methylpiperazin-1-yl)pyridin-3-yl)-6-chloropyrazolo[1,5-a]pyrimidine-3-carboxamide]", "Cisplatin Sensitization Assay": "+ (Cisplatin sensitization value>0.2 μM but <5 μM)"}, {"smiles": "CN1CCN(c2cc(Cl)ncc2NC(=O)c2c(N)nn3cc(Cl)cnc23)CC1", "note": "[I-N-52, 2-amino-6-chloro-N-(6-chloro-4-(4-methylpiperazin-1-yl)pyridin-3-yl)pyrazolo[1,5-a]pyrimidine-3-carboxamide]", "Cisplatin Sensitization Assay": "++ (Cisplatin sensitization value>0.02 μM but <0.2 μM)"}, {"smiles": "CN1CCN(c2ccncc2NC(=O)c2c(N)nn3cc(Cl)cnc23)CC1(C)C", "note": "[I-N-53, 2-amino-6-chloro-N-(4-(3,3,4-trimethylpiperazin-1-yl)pyridin-3-yl)pyrazolo[1,5-a]pyrimidine-3-carboxamide]", "Cisplatin Sensitization Assay": "++ (Cisplatin sensitization value>0.02 μM but <0.2 μM)"}, {"smiles": "CC1CN(c2ccncc2NC(=O)c2c(N)nn3cc(Cl)cnc23)CCN1C", "note": "(stereo not drawn) [I-N-54, 2-amino-6-chloro-N-(4-(3,4-dimethylpiperazin-1-yl)pyridin-3-yl)pyrazolo[1,5-a]pyrimidine-3-carboxamide]", "Cisplatin Sensitization Assay": "+++ (Cisplatin sensitization value of <0.02 μM)"}, {"smiles": "Nc1nn2cc(Cl)cnc2c1C(=O)Nc1cnccc1N1CCCC(N)C1", "note": "(stereo not drawn) [I-N-55, 2-amino-N-(4-(3-aminopiperidin-1-yl)pyridin-3-yl)-6-chloropyrazolo[1,5-a]pyrimidine-3-carboxamide]", "Cisplatin Sensitization Assay": "++ (Cisplatin sensitization value>0.02 μM but <0.2 μM)"}, {"smiles": "Nc1nn2cc(Cl)cnc2c1C(=O)Nc1cnccc1N1CCN2CCC1CC2", "note": "[I-N-56, N-(4-(1,4-diazabicyclo[3.2.2]nonan-4-yl)pyridin-3-yl)-2-amino-6-chloropyrazolo[1,5-a]pyrimidine-3-carboxamide]", "Cisplatin Sensitization Assay": "++ (Cisplatin sensitization value>0.02 μM but <0.2 μM)"}, {"smiles": "Cc1cncc(NC(=O)c2c(N)nn3cc(Cl)cnc23)c1N1CCN(C)CC1", "note": "[I-N-57, 2-amino-6-chloro-N-(5-methyl-4-(4-methylpiperazin-1-yl)pyridin-3-yl)pyrazolo[1,5-a]pyrimidine-3-carboxamide]", "Cisplatin Sensitization Assay": "+++ (Cisplatin sensitization value of <0.02 μM)"}, {"smiles": "Nc1nn2cc(Cl)cnc2c1C(=O)Nc1cnccc1N1CCN(C2COC2)CC1", "note": "[I-N-58, 2-amino-6-chloro-N-(4-(4-(oxetan-3-yl)piperazin-1-yl)pyridin-3-yl)pyrazolo[1,5-a]pyrimidine-3-carboxamide]", "Cisplatin Sensitization Assay": "++ (Cisplatin sensitization value>0.02 μM but <0.2 μM)"}, {"smiles": "CN1CCN(c2ccncc2NC(=O)c2c(N)nn3cc(Cl)cnc23)CC1", "note": "[I-N-59, 2-amino-6-chloro-N-(4-(4-methylpiperazin-1-yl)pyridin-3-yl)pyrazolo[1,5-a]pyrimidine-3-carboxamide]", "Cisplatin Sensitization Assay": "++ (Cisplatin sensitization value>0.02 μM but <0.2 μM)"}, {"smiles": "COCCN1CCN(c2ccncc2NC(=O)c2c(N)nn3cc(Cl)cnc23)CC1", "note": "[I-N-60, 2-amino-6-chloro-N-(4-(4-(2-methoxyethyl)piperazin-1-yl)pyridin-3-yl)pyrazolo[1,5-a]pyrimidine-3-carboxamide]", "Cisplatin Sensitization Assay": "+++ (Cisplatin sensitization value of <0.02 μM)"}, {"smiles": "CN1CCN2CCN(c3ccncc3NC(=O)c3c(N)nn4cc(Cl)cnc34)CC2C1", "note": "(stereo not drawn) [I-N-61, 2-amino-6-chloro-N-(4-(8-methylhexahydro-1H-pyrazino[1,2-a]pyrazin-2(6H)-yl)pyridin-3-yl)pyrazolo[1,5-a]pyrimidine-3-carboxamide]", "Cisplatin Sensitization Assay": "+++ (Cisplatin sensitization value of <0.02 μM)"}, {"smiles": "CC1(N2CCN(c3ccncc3NC(=O)c3c(N)nn4cc(F)cnc34)CC2)COC1", "note": "[I-N-62, 2-amino-6-fluoro-N-(4-(4-(3-methyloxetan-3-yl)piperazin-1-yl)pyridin-3-yl)pyrazolo[1,5-a]pyrimidine-3-carboxamide]", "Cisplatin Sensitization Assay": "++ (Cisplatin sensitization value>0.02 μM but <0.2 μM)"}, {"smiles": "CN1CCN(c2ccncc2NC(=O)c2c(N)nn3cc(Cl)cnc23)CC1CO", "note": "(stereo not drawn) [I-N-63, 2-amino-6-chloro-N-(4-(3-(hydroxymethyl)-4-methylpiperazin-1-yl)pyridin-3-yl)pyrazolo[1,5-a]pyrimidine-3-carboxamide]", "Cisplatin Sensitization Assay": "++ (Cisplatin sensitization value>0.02 μM but <0.2 μM)"}, {"smiles": "Nc1nn2cc(Cl)cnc2c1C(=O)Nc1cnccc1N1CCN(C2CC2)CC1", "note": "[I-N-64, 2-amino-6-chloro-N-(4-(4-cyclopropylpiperazin-1-yl)pyridin-3-yl)pyrazolo[1,5-a]pyrimidine-3-carboxamide]", "Cisplatin Sensitization Assay": "+++ (Cisplatin sensitization value of <0.02 μM)"}, {"smiles": "Nc1nn2cc(Cl)cnc2c1C(=O)Nc1cnccc1N1CCN2CCC[C@@H]2C1", "note": "[I-N-65, (R)-2-amino-6-chloro-N-(4-(hexahydropyrrolo[1,2-a]pyrazin-2(1H)-yl)pyridin-3-yl)pyrazolo[1,5-a]pyrimidine-3-carboxamide]", "Cisplatin Sensitization Assay": "+ (Cisplatin sensitization value>0.2 μM but <5 μM)"}, {"smiles": "CC1(O)CCN(c2ccncc2NC(=O)c2c(N)nn3cc(Cl)cnc23)CC1", "note": "[I-N-66, 2-amino-6-chloro-N-(4-(4-hydroxy-4-methylpiperidin-1-yl)pyridin-3-yl)pyrazolo[1,5-a]pyrimidine-3-carboxamide]", "Cisplatin Sensitization Assay": "+++ (Cisplatin sensitization value of <0.02 μM)"}, {"smiles": "Nc1nn2cc(Cl)cnc2c1C(=O)Nc1cnccc1N1CCN(CC(F)(F)F)CC1", "note": "[I-N-67, 2-amino-6-chloro-N-(4-(4-(2,2,2-trifluoroethyl)piperazin-1-yl)pyridin-3-yl)pyrazolo[1,5-a]pyrimidine-3-carboxamide]", "Cisplatin Sensitization Assay": "+++ (Cisplatin sensitization value of <0.02 μM)"}, {"smiles": "Nc1nn2cc(Cl)cnc2c1C(=O)Nc1cnccc1N1CC[S+]([O-])CC1", "note": "[I-N-68, 2-amino-6-chloro-N-(4-(1-oxidothiomorpholino)pyridin-3-yl)pyrazolo[1,5-a]pyrimidine-3-carboxamide]", "Cisplatin Sensitization Assay": "+++ (Cisplatin sensitization value of <0.02 μM)"}, {"smiles": "CC(C)(O)C1CCN(c2ccncc2NC(=O)c2c(N)nn3cc(Cl)cnc23)CC1", "note": "[I-N-69, 2-amino-6-chloro-N-(4-(4-(2-hydroxypropan-2-yl)piperidin-1-yl)pyridin-3-yl)pyrazolo[1,5-a]pyrimidine-3-carboxamide]", "Cisplatin Sensitization Assay": "+++ (Cisplatin sensitization value of <0.02 μM)"}, {"smiles": "Nc1nn2cc(Cl)cnc2c1C(=O)Nc1cnccc1N1CCNC(C(F)(F)F)C1", "note": "(stereo not drawn) [I-N-70, 2-amino-6-chloro-N-(4-(3-(trifluoromethyl)piperazin-1-yl)pyridin-3-yl)pyrazolo[1,5-a]pyrimidine-3-carboxamide]", "Cisplatin Sensitization Assay": "++ (Cisplatin sensitization value>0.02 μM but <0.2 μM)"}, {"smiles": "Nc1nn2cc(Cl)cnc2c1C(=O)Nc1cnccc1N1CCN2CCC[C@H]2C1", "note": "[I-N-71, (S)-2-amino-6-chloro-N-(4-(hexahydropyrrolo[1,2-a]pyrazin-2(1H)-yl)pyridin-3-yl)pyrazolo[1,5-a]pyrimidine-3-carboxamide]", "Cisplatin Sensitization Assay": "+++ (Cisplatin sensitization value of <0.02 μM)"}]}]}
